Columns and labels:
[1] = Digestion test in vitro, enzyme of small intestinal mucous membrane; type: in vitro ADME; settings: small intestinal mucosal enzyme, Tables 1 and 2, read-out: Hydrolysis rate
Description: (§1) In accordance with the method reported in K. Okada et al., Journal of Japanese Society of Nutrition and Food Science, Vol.43, No.1, pp.23-29 (1990), a crystalline neotrehalose specimen formulated by the method in Example A1-2 was prepared as an aqueous solution which was then tested for its digestibility in vitro: The digestibility was determined with the following equation and expressed as hydrolysis rate (%): [formula]
Similarly as above, several kinds of disaccharides were tested for their digestibility using the enzyme of the small intestinal mucous membrane.

[2] = Utilization test in vivo, intravenous instillation to healthy volunteers (blood sugar, insulin, urine); set-up: species or system human; settings: for dose excreted: urine, 50000 mg, read-out: amount of glucose in the urine
Description: A neotrehalose specimen prepared by the method in Example A1-2 was treated to remove pyrogens in the usual manner, and 50 g of the resultant neotrehalose specimen was in accordance with the method reported in Matsuzaki, Yakubutsu Ryoho, Vol.6, No.2, pp.65-72 (1973), formulated as a 10 w/v % aqueous solution which was then intravenously administered to 2 healthy volunteers by instillation. Their blood was sampled at prescribed time intervals and blood sugar and insulin levels were measured, along with the amount of neotrehalose secreted in their urine. As controls, glucose and maltose were used.

[3] = acidic conditions; cited from earlier work
[4] = prior art, Japanese patent publications; cited from earlier work
amylases = settings: Japanese Patent Laid-Open No.240,758/88; cited from earlier work
[5] = Digestion test in vitro, amylopsin; type: in vitro ADME; settings: Table 1, read-out: Hydrolysis rate
Description: as §1

[6] = Digestion test in vitro, gastric juice; type: in vitro ADME; settings: Table 1, read-out: Hydrolysis rate
Description: as §1

[7] = Digestion test in vitro, salivary amylase; type: in vitro ADME; settings: Table 1, read-out: Hydrolysis rate
Description: as §1

dd mice = assay: Acute toxicity test, oral, mice; type: in vivo, mouse; settings: 7 week-old dd mice
Excerpt: A crystalline neotrehalose specimen, prepared by the method in Example A1-2, was orally administered to 7 week-old dd mice as an acute toxicity test. […] Therefore, the toxicity of the tested substance appears to be extremely low.

[8] = Utilization test in vivo, oral administration to healthy volunteers (blood sugar and insulin); set-up: species or system human
Excerpt: In accordance with the method described in H. Atsuji et al., Journal of Clinical Nutrition, Vol.41, Vol.2, pp.200-208 (1972), 30 g of a neotrehalose specimen was formulated as a 20 w/v % aqueous solution which was then orally administered to 3 healthy volunteers (men) and their blood was sampled at prescribed time intervals and tested for blood sugar and insulin levels. As a control, glucose was used.

[9] = when the dose and administration method are not correctly chosen; cited from earlier work
[10] = human, 50 g as 10 w/v % aqueous solution, intravenous instillation, 2 healthy volunteers
[11] = 50 g as 10 w/v % aqueous solution, intravenous instillation, 2 healthy volunteers
[12] = 30 g as 20 w/v % aqueous solution, oral, 3 healthy volunteers, about

OC[C@H]1O[C@@H](O[C@@H]2O[C@H](CO)[C@@H](O)[C@H](O)[C@H]2O)[C@H](O)[C@@H](O)[C@@H]1O [Isotrehalose (β,β-trehalose), β,β-trehalose]
metabolised [1]: 0.1%

OC[C@H]1O[C@H](O[C@H]2[C@H](O)[C@@H](O)[C@H](O)O[C@@H]2CO)[C@H](O)[C@@H](O)[C@@H]1O [Maltose, reference compound]
dose excreted [2, 10]: < 20%

OC[C@H]1O[C@@](CO)(O[C@H]2O[C@H](CO)[C@@H](O)[C@H](O)[C@H]2O)[C@@H](O)[C@@H]1O [Sucrose]
hydrolysis into glucose and fructose [3]: readily hydrolyzed

OC[C@H]1O[C@H](O[C@H]2O[C@H](CO)[C@@H](O)[C@H](O)[C@H]2O)[C@H](O)[C@@H](O)[C@@H]1O [Trehalose (α,α-trehalose), α,α-trehalose]
metabolism and utilization in vivo [4]: not readily metabolized and absorbed by the human body
hydrolysis by enzymes such as amylases (amylases): not readily hydrolyzed
metabolised [1]: 0.4%

OC[C@H]1OC(O)[C@H](O)[C@@H](O)[C@@H]1O (stereo partly drawn) [glucose, reference compound]
blood sugar level ([2]; human, in vivo, iv): greatly increased
insulin level ([2]; human, in vivo, iv): greatly increased
dose excreted [2, 10]: < 10%

OC[C@@H](O)[C@@H](O[C@@H]1O[C@H](CO)[C@H](O)[C@H](O)[C@H]1O)[C@H](O)[C@@H](O)CO [lactitol]
metabolism and utilization in vivo [4]: not readily metabolized and utilized in vivo

OC[C@@H](O)[C@@H](O[C@H]1O[C@H](CO)[C@@H](O)[C@H](O)[C@H]1O)[C@H](O)[C@@H](O)CO [maltitol]
metabolism and utilization in vivo [4]: not readily metabolized and utilized in vivo

OC[C@H]1O[C@@H](O[C@H]2O[C@H](CO)[C@@H](O)[C@H](O)[C@H]2O)[C@H](O)[C@@H](O)[C@@H]1O [neotrehalose, O-α-D-glucopyranosyl β-D-glucopyranoside]
metabolised [5]: 0%
blood sugar level [2, 11]: slightly increased
insulin level [2, 11]: did not greatly increase
dynamics of blood sugar and insulin compared with maltose ([2]; 50 g intravenous, controls glucose and maltose): the same dynamics as maltose
dose excreted [2, 10]: < 20%
metabolised [6]: 0%
metabolised [7]: 0%
metabolised [1]: 43%
toxicity (dd mice): extremely low
highest administered dose without animal death (dd mice; difficult to administer a higher dose): 5 g
animal death (dd mice; up to 5 g): no animal death
time of maximum value of blood sugar level after oral administration [8, 12]: 0.5 to 1 h
time of maximum value of insulin level after oral administration [8, 12]: 0.5 to 1 h
behaviour of blood sugar and insulin levels compared with glucose ([8]; 30 g oral, control glucose): behaved similarly as glucose

OC[C@@H](O)[C@@H](O)[C@H](O)[C@@H](O)CO [sorbitol]
diarrhea [9]: acute diarrhea

OC[C@@H](O)[C@H](O)[C@@H](O)CO [xylitol]
diarrhea [9]: acute diarrhea
